In the NIST ThermoML archive (doi:10.1021/je050031f):
± gives the expanded uncertainty stated by the source.

Columns and labels:
[1] = xn = mol fraction of the nth substance listed; conditions: 100.8 kPa, Liquid; for viscosity: Capillary tube (Ostwald / Ubbelohde) method
[2] = refractive index (Na D-line) (dimensionless); xn = mol fraction of the nth substance listed; conditions: 100.8 kPa, Liquid, Standard Abbe refractometry

CC1CCCCC1 [methylcyclohexane] + CC(C)OC(C)C
Conditions | mass density, 288.15 K [kg/m3] | mass density, 298.15 K [kg/m3] | mass density, 308.15 K [kg/m3] | refractive index, 288.15 K | refractive index, 298.15 K | refractive index, 308.15 K | viscosity, 288.15 K [mPa·s] | viscosity, 298.15 K [mPa·s] | viscosity, 308.15 K [mPa·s]
[1], x2 = 0 | 773.4 ± 0.3 | 765 ± 0.3 | 756.3 ± 0.3 | – | – | – | 0.784 | 0.685 | 0.6
[1], x2 = 0.0502 | 771.3 ± 0.3 | 762.5 ± 0.3 | 753.8 ± 0.3 | – | – | – | 0.744 | 0.653 | 0.575
[1], x2 = 0.1 | 768.9 ± 0.3 | 760.1 ± 0.3 | 751.3 ± 0.3 | – | – | – | 0.697 | 0.612 | 0.542
[1], x2 = 0.15 | 766.6 ± 0.3 | 757.7 ± 0.3 | 748.8 ± 0.3 | – | – | – | 0.66 | 0.579 | 0.514
[1], x2 = 0.2 | 764.3 ± 0.3 | 755.3 ± 0.3 | 746.3 ± 0.3 | – | – | – | 0.627 | 0.551 | 0.489
[1], x2 = 0.25 | 761.9 ± 0.3 | 752.9 ± 0.3 | 743.8 ± 0.3 | – | – | – | 0.595 | 0.524 | 0.467
[1], x2 = 0.3 | 759.6 ± 0.3 | 750.5 ± 0.3 | 741.3 ± 0.3 | – | – | – | 0.568 | 0.502 | 0.448
[1], x2 = 0.35 | 757.4 ± 0.3 | 748.1 ± 0.3 | 738.9 ± 0.3 | – | – | – | 0.543 | 0.481 | 0.43
[1], x2 = 0.4 | 755.1 ± 0.3 | 745.8 ± 0.3 | 736.4 ± 0.3 | – | – | – | 0.522 | 0.464 | 0.415
[1], x2 = 0.45 | 752.8 ± 0.3 | 743.4 ± 0.3 | 734 ± 0.3 | – | – | – | 0.503 | 0.447 | 0.401
[1], x2 = 0.5 | 750.6 ± 0.3 | 741.1 ± 0.3 | 731.6 ± 0.3 | – | – | – | 0.484 | 0.431 | 0.387
[1], x2 = 0.55 | 748.4 ± 0.3 | 738.8 ± 0.3 | 729.2 ± 0.3 | – | – | – | 0.466 | 0.415 | 0.373
[1], x2 = 0.6 | 746.2 ± 0.3 | 736.5 ± 0.3 | 726.8 ± 0.3 | – | – | – | 0.447 | 0.399 | 0.36
[1], x2 = 0.65 | 743.9 ± 0.3 | 734.2 ± 0.3 | 724.4 ± 0.3 | – | – | – | 0.431 | 0.385 | 0.347
[1], x2 = 0.7 | 741.7 ± 0.3 | 731.9 ± 0.3 | 722 ± 0.3 | – | – | – | 0.415 | 0.372 | 0.335
[1], x2 = 0.75 | 739.6 ± 0.3 | 729.6 ± 0.3 | 719.6 ± 0.3 | – | – | – | 0.403 | 0.361 | 0.325
[1], x2 = 0.8 | 737.4 ± 0.3 | 727.3 ± 0.3 | 717.3 ± 0.3 | – | – | – | 0.389 | 0.349 | 0.316
[1], x2 = 0.85 | 735.3 ± 0.3 | 725.1 ± 0.3 | 714.9 ± 0.3 | – | – | – | 0.379 | 0.341 | 0.308
[1], x2 = 0.9 | 733.1 ± 0.3 | 722.9 ± 0.3 | 712.6 ± 0.3 | – | – | – | 0.368 | 0.331 | 0.299
[1], x2 = 0.95 | 731 ± 0.3 | 720.6 ± 0.3 | 710.3 ± 0.3 | – | – | – | 0.358 | 0.321 | 0.291
[2], x2 = 0 | – | – | – | 1.42578 ± 0.00033 | 1.42053 ± 0.00033 | 1.41537 ± 0.00033 | – | – | –
[2], x2 = 0.0502 | – | – | – | 1.42321 ± 0.00032 | 1.41757 ± 0.00032 | 1.4125 ± 0.00032 | – | – | –
[2], x2 = 0.1 | – | – | – | 1.42014 ± 0.00032 | 1.4146 ± 0.00032 | 1.40957 ± 0.00032 | – | – | –
[2], x2 = 0.15 | – | – | – | 1.41715 ± 0.00032 | 1.41158 ± 0.00032 | 1.40663 ± 0.00032 | – | – | –
[2], x2 = 0.2 | – | – | – | 1.41419 ± 0.00032 | 1.40859 ± 0.00032 | 1.40365 ± 0.00032 | – | – | –
[2], x2 = 0.25 | – | – | – | 1.41129 ± 0.00032 | 1.40565 ± 0.00032 | 1.40068 ± 0.00032 | – | – | –
[2], x2 = 0.3 | – | – | – | 1.40842 ± 0.00032 | 1.40277 ± 0.00032 | 1.39775 ± 0.00032 | – | – | –
[2], x2 = 0.35 | – | – | – | 1.40558 ± 0.00032 | 1.3999 ± 0.00032 | 1.39484 ± 0.00032 | – | – | –
[2], x2 = 0.4 | – | – | – | 1.40277 ± 0.00032 | 1.39707 ± 0.00032 | 1.39197 ± 0.00032 | – | – | –
[2], x2 = 0.45 | – | – | – | 1.39999 ± 0.00032 | 1.39428 ± 0.00032 | 1.38912 ± 0.00032 | – | – | –
[2], x2 = 0.5 | – | – | – | 1.39721 ± 0.00032 | 1.3915 ± 0.00032 | 1.38631 ± 0.00032 | – | – | –
[2], x2 = 0.55 | – | – | – | 1.3945 ± 0.00032 | 1.38878 ± 0.00032 | 1.38356 ± 0.00032 | – | – | –
[2], x2 = 0.6 | – | – | – | 1.3918 ± 0.00032 | 1.3861 ± 0.00032 | 1.38083 ± 0.00032 | – | – | –
[2], x2 = 0.65 | – | – | – | 1.38914 ± 0.00032 | 1.38347 ± 0.00032 | 1.37818 ± 0.00032 | – | – | –
[2], x2 = 0.7 | – | – | – | 1.38652 ± 0.00032 | 1.38082 ± 0.00032 | 1.37552 ± 0.00032 | – | – | –
[2], x2 = 0.75 | – | – | – | 1.38392 ± 0.00031 | 1.37823 ± 0.00031 | 1.37286 ± 0.00031 | – | – | –
[2], x2 = 0.8 | – | – | – | 1.38136 ± 0.00031 | 1.37565 ± 0.00031 | 1.37025 ± 0.00031 | – | – | –
[2], x2 = 0.85 | – | – | – | 1.37883 ± 0.00031 | 1.37309 ± 0.00031 | 1.36765 ± 0.00031 | – | – | –
[2], x2 = 0.9 | – | – | – | 1.37629 ± 0.00031 | 1.37053 ± 0.00031 | 1.36503 ± 0.00031 | – | – | –
[2], x2 = 0.95 | – | – | – | 1.37377 ± 0.00031 | 1.36799 ± 0.00031 | 1.36243 ± 0.00031 | – | – | –
